Paper PMC9506414, “Novel 2,6,9-Trisubstituted Purines as Potent CDK Inhibitors Alleviating Trastuzumab-Resistance of HER2-Positive Breast Cancers” (Pharmaceuticals, 2022)

Tests used:
Test in all cases: Kinome-wide inhibition profiling
Format in all cases: biochemical
ABL2 = target: T1, ABL2 (Homo sapiens, UniProt P42684)
T1 construct: purchased Reaction Biology Corp
Procedure: (§1) In vitro CDK12/cyclinK assays for all compounds and in vitro kinome-wide inhibition profiling of 30d at 10 μM were performed by a CRO company (Reaction Biology Corp., San Diego, CA, USA).

ACVR1B = target: T2, ACVR1B (Homo sapiens, UniProt P36896)
T2 construct: purchased Reaction Biology Corp
Procedure: as §1

BMPR2 = target: T3, BMPR2 (Homo sapiens, UniProt Q13873)
T3 construct: purchased Reaction Biology Corp
Procedure: as §1

BRSK1 = target: T4, BRSK1 (Homo sapiens, UniProt Q8TDC3)
T4 construct: purchased Reaction Biology Corp
Procedure: as §1

CAMK2b = target: T5, CAMK2b (Homo sapiens, UniProt Q13554)
T5 construct: purchased Reaction Biology Corp
Procedure: as §1

CAMK2d = target: T6, CAMK2d (Homo sapiens, UniProt Q13557)
T6 construct: purchased Reaction Biology Corp
Procedure: as §1

CDK3/cyclinE = target: T7, CDK3/cyclinE (Homo sapiens, UniProt Q00526)
T7 construct: purchased Reaction Biology Corp
Procedure: as §1

CDK9/cyclinT1 = target: T8, CDK9/cyclinT1 (Homo sapiens, UniProt P50750)
T8 construct: purchased Reaction Biology Corp
Procedure: as §1

CHEK1 = target: T9, CHEK1 (Homo sapiens, UniProt O14757)
T9 construct: purchased Reaction Biology Corp
Procedure: as §1

CLK2 = target: T10, CLK2 (Homo sapiens, UniProt P49760)
T10 construct: purchased Reaction Biology Corp
Procedure: as §1

DYRK3 = target: T11, DYRK3 (Homo sapiens, UniProt O43781)
T11 construct: purchased Reaction Biology Corp
Procedure: as §1

ERBB4 = target: T12, ERBB4 (Homo sapiens, UniProt Q15303)
T12 construct: purchased Reaction Biology Corp
Procedure: as §1

ERK5 = target: T13, ERK5 (Homo sapiens, UniProt Q13164)
T13 construct: purchased Reaction Biology Corp
Procedure: as §1

FGR = target: T14, FGR (Homo sapiens, UniProt P09769)
T14 construct: purchased Reaction Biology Corp
Procedure: as §1

FLT4 = target: T15, FLT4 (Homo sapiens, UniProt P35916)
T15 construct: purchased Reaction Biology Corp
Procedure: as §1

GRK2 = target: T16, GRK2 (Homo sapiens, UniProt P25098)
T16 construct: purchased Reaction Biology Corp
Procedure: as §1

GSK3b = target: T17, GSK3b (Homo sapiens, UniProt P49841)
T17 construct: purchased Reaction Biology Corp
Procedure: as §1

IKK-beta = target: T18, IKK-beta (Homo sapiens, UniProt O14920)
T18 construct: purchased Reaction Biology Corp
Procedure: as §1

IRAK2 = target: T19, IRAK2 (Homo sapiens, UniProt O43187)
T19 construct: purchased Reaction Biology Corp
Procedure: as §1

JNK2 = target: T20, JNK2 (Homo sapiens, UniProt P45984)
T20 construct: purchased Reaction Biology Corp
Procedure: as §1

LCK = target: T21, LCK (Homo sapiens, UniProt P06239)
T21 construct: purchased Reaction Biology Corp
Procedure: as §1

LIMK1 = target: T22, LIMK1 (Homo sapiens, UniProt P53667)
T22 construct: purchased Reaction Biology Corp
Procedure: as §1

MEK1 = target: T23, MEK1 (Homo sapiens, UniProt Q02750)
T23 construct: purchased Reaction Biology Corp
Procedure: as §1

MEK5 = target: T24, MEK5 (Homo sapiens, UniProt Q13163)
T24 construct: purchased Reaction Biology Corp
Procedure: as §1

MERTK = target: T25, MERTK (Homo sapiens, UniProt Q12866)
T25 construct: purchased Reaction Biology Corp
Procedure: as §1

MLCK = target: T26, MLCK (Homo sapiens, UniProt Q15746)
T26 construct: purchased Reaction Biology Corp
Procedure: as §1

MLK3 = target: T27, MLK3 (Homo sapiens, UniProt Q16584)
T27 construct: purchased Reaction Biology Corp
Procedure: as §1

NDR2 = target: T28, NDR2 (Homo sapiens, UniProt Q9Y2H1)
T28 construct: purchased Reaction Biology Corp
Procedure: as §1

NEK5 = target: T29, NEK5 (Homo sapiens, UniProt Q6P3R8)
T29 construct: purchased Reaction Biology Corp
Procedure: as §1

NEK7 = target: T30, NEK7 (Homo sapiens, UniProt Q8TDX7)
T30 construct: purchased Reaction Biology Corp
Procedure: as §1

PCTK2 = target: T31, PCTK2 (Homo sapiens, UniProt Q00537)
T31 construct: purchased Reaction Biology Corp
Procedure: as §1

PDGFRb = target: T32, PDGFRb (Homo sapiens, UniProt P09619)
T32 construct: purchased Reaction Biology Corp
Procedure: as §1

PHKg1 = target: T33, PHKg1 (Homo sapiens, UniProt Q16816)
T33 construct: purchased Reaction Biology Corp
Procedure: as §1

PKA = target: T34, PKA (Homo sapiens, UniProt P17612)
T34 construct: purchased Reaction Biology Corp
Procedure: as §1

PKAC-gamma = target: T35, PKAC-gamma (Homo sapiens, UniProt P22612)
T35 construct: purchased Reaction Biology Corp
Procedure: as §1

PKCb2 = target: T36, PKCb2 (Homo sapiens, UniProt P05771)
T36 construct: purchased Reaction Biology Corp
Procedure: as §1

SGK2 = target: T37, SGK2 (Homo sapiens, UniProt Q9HBY8)
T37 construct: purchased Reaction Biology Corp
Procedure: as §1

TEC = target: T38, TEC (Homo sapiens, UniProt P42680)
T38 construct: purchased Reaction Biology Corp
Procedure: as §1

TIE2 = target: T39, TIE2 (Homo sapiens, UniProt Q02763)
T39 construct: purchased Reaction Biology Corp
Procedure: as §1

TLK1 = target: T40, TLK1 (Homo sapiens, UniProt Q9UKI8)
T40 construct: purchased Reaction Biology Corp
Procedure: as §1

ULK1 = target: T41, ULK1 (Homo sapiens, UniProt O75385)
T41 construct: purchased Reaction Biology Corp
Procedure: as §1

YANK3 = target: T42, YANK3 (Homo sapiens, UniProt Q86UX6)
T42 construct: purchased Reaction Biology Corp
Procedure: as §1

ZAK = target: T43, ZAK (Homo sapiens, UniProt Q9NYL2)
T43 construct: purchased Reaction Biology Corp
Procedure: as §1

ZAP70 = target: T44, ZAP70 (Homo sapiens, UniProt P43403)
T44 construct: purchased Reaction Biology Corp
Procedure: as §1

T8 sequence (P50750 whole entry): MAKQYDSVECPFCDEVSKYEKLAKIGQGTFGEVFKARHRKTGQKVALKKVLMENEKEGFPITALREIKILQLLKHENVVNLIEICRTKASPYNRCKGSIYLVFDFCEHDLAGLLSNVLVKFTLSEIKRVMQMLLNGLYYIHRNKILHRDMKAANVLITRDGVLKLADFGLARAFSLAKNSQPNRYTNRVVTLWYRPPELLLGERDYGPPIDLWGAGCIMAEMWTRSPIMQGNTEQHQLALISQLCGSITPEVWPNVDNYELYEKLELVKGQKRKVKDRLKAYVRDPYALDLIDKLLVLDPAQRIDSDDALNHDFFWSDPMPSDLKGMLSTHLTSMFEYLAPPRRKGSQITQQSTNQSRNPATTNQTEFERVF
T8 sequence (O60563 whole entry partner): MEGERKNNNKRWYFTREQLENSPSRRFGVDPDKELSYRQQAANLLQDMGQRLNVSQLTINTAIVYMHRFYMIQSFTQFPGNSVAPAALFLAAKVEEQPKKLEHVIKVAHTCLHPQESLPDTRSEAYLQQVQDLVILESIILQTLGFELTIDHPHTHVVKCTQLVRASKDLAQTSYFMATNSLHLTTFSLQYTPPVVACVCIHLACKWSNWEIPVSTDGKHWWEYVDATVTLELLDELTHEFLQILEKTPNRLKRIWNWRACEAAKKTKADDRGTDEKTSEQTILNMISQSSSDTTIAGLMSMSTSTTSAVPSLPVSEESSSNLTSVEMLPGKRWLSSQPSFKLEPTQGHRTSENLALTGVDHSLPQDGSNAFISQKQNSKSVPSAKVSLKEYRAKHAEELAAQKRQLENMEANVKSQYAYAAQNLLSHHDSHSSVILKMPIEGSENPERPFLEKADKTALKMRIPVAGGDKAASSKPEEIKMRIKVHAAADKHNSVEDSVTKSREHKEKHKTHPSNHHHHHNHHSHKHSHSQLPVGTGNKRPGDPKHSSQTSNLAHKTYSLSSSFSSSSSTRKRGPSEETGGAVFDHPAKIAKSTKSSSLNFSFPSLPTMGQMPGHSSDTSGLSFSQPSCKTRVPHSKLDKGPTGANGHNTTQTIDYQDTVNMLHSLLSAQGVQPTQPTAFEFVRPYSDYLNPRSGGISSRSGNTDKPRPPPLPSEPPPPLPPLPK
T7 sequence (Q00526 whole entry): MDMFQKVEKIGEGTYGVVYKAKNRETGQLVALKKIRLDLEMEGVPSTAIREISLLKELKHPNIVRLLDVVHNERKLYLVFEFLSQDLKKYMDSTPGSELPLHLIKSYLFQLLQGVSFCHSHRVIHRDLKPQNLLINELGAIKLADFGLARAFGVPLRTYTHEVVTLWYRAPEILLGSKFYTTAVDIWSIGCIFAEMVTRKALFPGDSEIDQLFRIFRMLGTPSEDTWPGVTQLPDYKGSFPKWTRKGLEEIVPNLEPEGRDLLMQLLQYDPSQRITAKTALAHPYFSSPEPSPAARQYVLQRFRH
T7 sequence (P24864 whole entry partner): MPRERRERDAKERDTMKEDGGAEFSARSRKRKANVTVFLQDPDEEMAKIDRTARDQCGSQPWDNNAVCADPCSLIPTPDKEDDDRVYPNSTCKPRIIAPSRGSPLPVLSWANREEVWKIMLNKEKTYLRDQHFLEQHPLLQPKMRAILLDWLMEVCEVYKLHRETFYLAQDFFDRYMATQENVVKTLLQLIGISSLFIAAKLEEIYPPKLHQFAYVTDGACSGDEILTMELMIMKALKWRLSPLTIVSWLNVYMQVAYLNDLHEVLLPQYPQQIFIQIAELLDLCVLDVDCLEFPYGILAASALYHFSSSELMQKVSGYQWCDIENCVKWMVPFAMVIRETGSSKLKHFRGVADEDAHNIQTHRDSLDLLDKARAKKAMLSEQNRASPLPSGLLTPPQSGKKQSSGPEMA
T14 sequence (P09769 whole entry): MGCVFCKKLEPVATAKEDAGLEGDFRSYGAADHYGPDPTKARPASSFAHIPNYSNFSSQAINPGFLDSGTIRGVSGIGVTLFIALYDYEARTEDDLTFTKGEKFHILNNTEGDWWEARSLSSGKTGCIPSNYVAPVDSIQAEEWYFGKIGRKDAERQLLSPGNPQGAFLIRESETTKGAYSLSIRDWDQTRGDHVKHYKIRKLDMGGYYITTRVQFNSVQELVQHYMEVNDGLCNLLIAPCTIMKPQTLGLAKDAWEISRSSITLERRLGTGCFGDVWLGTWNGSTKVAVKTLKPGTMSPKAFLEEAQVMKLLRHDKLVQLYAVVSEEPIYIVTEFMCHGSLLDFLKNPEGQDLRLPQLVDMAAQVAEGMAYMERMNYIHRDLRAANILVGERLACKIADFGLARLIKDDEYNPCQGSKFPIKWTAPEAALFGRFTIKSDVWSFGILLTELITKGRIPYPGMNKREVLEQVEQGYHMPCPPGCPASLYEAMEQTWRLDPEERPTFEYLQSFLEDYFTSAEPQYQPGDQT
T38 sequence (P42680 whole entry): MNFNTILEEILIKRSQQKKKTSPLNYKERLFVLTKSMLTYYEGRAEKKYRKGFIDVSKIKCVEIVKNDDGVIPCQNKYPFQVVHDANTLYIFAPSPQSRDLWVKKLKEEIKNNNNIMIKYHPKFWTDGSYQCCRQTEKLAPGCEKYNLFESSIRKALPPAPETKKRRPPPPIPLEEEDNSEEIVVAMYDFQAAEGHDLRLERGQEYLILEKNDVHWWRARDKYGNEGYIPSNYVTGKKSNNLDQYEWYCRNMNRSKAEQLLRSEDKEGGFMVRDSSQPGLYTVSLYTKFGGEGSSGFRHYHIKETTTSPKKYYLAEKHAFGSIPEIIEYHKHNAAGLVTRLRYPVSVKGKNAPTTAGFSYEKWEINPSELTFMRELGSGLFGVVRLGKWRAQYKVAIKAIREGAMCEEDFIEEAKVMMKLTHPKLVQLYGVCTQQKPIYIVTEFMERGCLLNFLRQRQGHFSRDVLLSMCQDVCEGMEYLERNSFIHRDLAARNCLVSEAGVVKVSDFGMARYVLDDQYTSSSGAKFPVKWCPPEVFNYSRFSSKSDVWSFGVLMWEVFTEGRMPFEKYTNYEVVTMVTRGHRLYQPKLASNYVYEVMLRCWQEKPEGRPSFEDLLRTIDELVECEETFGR
T24 sequence (Q13163 whole entry): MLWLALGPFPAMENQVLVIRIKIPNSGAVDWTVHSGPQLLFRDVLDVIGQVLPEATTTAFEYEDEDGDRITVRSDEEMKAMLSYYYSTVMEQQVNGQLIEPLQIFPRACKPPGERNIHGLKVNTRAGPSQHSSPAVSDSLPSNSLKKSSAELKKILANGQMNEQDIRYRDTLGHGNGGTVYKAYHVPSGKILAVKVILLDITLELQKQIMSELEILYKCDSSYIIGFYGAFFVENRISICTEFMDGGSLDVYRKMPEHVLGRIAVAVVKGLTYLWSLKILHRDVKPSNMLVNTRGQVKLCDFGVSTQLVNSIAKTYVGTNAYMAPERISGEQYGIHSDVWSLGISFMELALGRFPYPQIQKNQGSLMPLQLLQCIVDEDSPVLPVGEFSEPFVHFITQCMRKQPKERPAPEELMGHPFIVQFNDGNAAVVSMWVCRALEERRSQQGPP
T31 sequence (Q00537 whole entry): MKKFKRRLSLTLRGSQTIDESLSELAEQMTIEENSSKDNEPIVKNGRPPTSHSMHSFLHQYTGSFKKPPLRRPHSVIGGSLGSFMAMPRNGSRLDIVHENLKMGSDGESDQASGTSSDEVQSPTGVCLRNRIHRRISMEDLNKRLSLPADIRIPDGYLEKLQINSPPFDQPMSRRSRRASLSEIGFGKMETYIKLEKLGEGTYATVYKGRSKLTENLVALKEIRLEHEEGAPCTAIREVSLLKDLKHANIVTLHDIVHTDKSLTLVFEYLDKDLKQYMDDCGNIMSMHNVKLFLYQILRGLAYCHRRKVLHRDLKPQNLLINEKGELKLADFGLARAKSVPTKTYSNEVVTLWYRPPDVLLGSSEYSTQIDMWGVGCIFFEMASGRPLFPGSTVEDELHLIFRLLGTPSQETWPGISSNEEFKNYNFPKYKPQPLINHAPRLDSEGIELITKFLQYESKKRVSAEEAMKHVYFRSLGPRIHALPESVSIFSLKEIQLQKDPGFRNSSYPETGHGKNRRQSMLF
T31 sequence (Q8ND76 whole entry partner): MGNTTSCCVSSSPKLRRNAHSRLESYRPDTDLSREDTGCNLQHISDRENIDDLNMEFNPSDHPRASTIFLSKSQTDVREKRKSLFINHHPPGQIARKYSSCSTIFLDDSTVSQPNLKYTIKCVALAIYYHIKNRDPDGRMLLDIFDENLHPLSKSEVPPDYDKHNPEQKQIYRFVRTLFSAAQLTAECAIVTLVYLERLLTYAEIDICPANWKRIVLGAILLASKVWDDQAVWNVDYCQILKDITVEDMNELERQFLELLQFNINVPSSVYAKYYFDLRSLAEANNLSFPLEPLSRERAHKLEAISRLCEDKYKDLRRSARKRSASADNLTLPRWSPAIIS
T42 sequence (Q86UX6 whole entry): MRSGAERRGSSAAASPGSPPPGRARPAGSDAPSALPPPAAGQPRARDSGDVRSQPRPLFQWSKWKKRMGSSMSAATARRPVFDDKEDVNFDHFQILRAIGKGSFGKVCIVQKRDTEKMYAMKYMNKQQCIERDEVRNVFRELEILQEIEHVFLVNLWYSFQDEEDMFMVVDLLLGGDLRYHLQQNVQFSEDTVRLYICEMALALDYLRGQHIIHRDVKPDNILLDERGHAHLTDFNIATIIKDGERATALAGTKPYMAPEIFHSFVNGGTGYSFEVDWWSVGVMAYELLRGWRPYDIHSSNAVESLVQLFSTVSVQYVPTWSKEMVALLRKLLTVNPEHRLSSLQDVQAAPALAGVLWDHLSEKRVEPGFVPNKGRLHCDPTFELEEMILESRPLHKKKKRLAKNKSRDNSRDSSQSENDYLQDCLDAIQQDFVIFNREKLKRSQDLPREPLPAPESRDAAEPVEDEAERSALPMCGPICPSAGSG

SMILES: CCn1cnc2c(NCc3ccc(-c4ccccn4)nc3)nc(-c3ccc(N)nc3)nc21 [Compound 30d, N-([2,2′-Bipyridin]-5-ylmethyl)-2-(6-aminopyridin-3-yl)-9-ethyl-9H-purin-6-amine]
- remaining activity at 10 µM (ABL2): 56.1%
- remaining activity at 10 µM (ACVR1B): 132%
- remaining activity at 10 µM (BMPR2): 52.4%
- remaining activity at 10 µM (BRSK1): 92.8%
- remaining activity at 10 µM (CAMK2b): 65.2%
- remaining activity at 10 µM (CAMK2d): 61.7%
- inhibition at 10 µM (CDK3/cyclinE): > 95%
- remaining activity at 10 µM (CDK3/cyclinE): 1%
- inhibition at 10 µM (CDK9/cyclinT1): > 95%
- remaining activity at 10 µM (CDK9/cyclinT1): 0.8%
- remaining activity at 10 µM (CHEK1): 79.5%
- remaining activity at 10 µM (CLK2): 11.7%
- remaining activity at 10 µM (DYRK3): 58.6%
- remaining activity at 10 µM (ERBB4): 73%
- remaining activity at 10 µM (ERK5): 97.7%
- remaining activity at 10 µM (FGR): 54.6%
- remaining activity at 10 µM (FLT4): 10%
- remaining activity at 10 µM (GRK2): 99.1%
- remaining activity at 10 µM (GSK3b): 5.8%
- remaining activity at 10 µM (IKK-beta): 83.7%
- remaining activity at 10 µM (IRAK2): 97.5%
- remaining activity at 10 µM (JNK2): 61.7%
- remaining activity at 10 µM (LCK): 83.6%
- remaining activity at 10 µM (LIMK1): 59.9%
- remaining activity at 10 µM (MEK1): 149%
- remaining activity at 10 µM (MEK5): 84.1%
- remaining activity at 10 µM (MERTK): 71%
- remaining activity at 10 µM (MLCK): 63.4%
- remaining activity at 10 µM (MLK3): 51.4%
- remaining activity at 10 µM (NDR2): 36.9%
- remaining activity at 10 µM (NEK5): 83.8%
- remaining activity at 10 µM (NEK7): 93.2%
- remaining activity at 10 µM (PCTK2): 7.3%
- remaining activity at 10 µM (PDGFRb): 34.7%
- remaining activity at 10 µM (PHKg1): 16.5%
- remaining activity at 10 µM (PKA): 93.1%
- remaining activity at 10 µM (PKAC-gamma): 88.4%
- remaining activity at 10 µM (PKCb2): 39.6%
- remaining activity at 10 µM (SGK2): 84.7%
- remaining activity at 10 µM (TEC): 71.5%
- remaining activity at 10 µM (TIE2): 34.8%
- remaining activity at 10 µM (TLK1): 67.8%
- remaining activity at 10 µM (ULK1): 70.3%
- remaining activity at 10 µM (YANK3): 86.6%
- remaining activity at 10 µM (ZAK): 97.5%
- remaining activity at 10 µM (ZAP70): 100%
